# Results as given in patent US11420970B1 (NOVARTIS AG, priority 2019, dated 2022).
# Where two headings read alike, the source gives them in different places.
# Key:
# NSD2 [1-1365] = NSD2 [1-1365] (Homo sapiens (Human), UniProt O96028); experiment: LC-MS/MS-based NSD2 enzymatic assay (SAH production); assay type: biochemical; conditions: read-out: NSD2 IC50
# In short: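 SAH formed was measured by LC-MS/MS using d4-SAH as internal standard and an SAH calibration curve. Compounds were preincubated 20 min with NSD2 [1-1365] and SAM; mouse-liver nucleosome then started a 90 min room-temperature reaction (8 nM enzyme, 1 μM SAM, 400 nM nucleosome final, pH 8.0), stopped with TFA.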
# [1] = tested on: cellular H3K36me2 level in multiple myeloma cell line KMS11 (t(4;14)+); experiment: H3K36me2 cellular FRET assay in KMS11-Par line; assay type: cell-based; conditions: FRET, read-out: H3K36me2 FRET in KMS11-Par
# Protocol: H3K36Me2 Cellular FRET Assay in KMS11-Par Line
# Fluorescence Resonance Energy Transfer (FRET) assay was used to test the ability of candidate compound to reduce cellular H3K36me2 level in multiple myeloma cell line KMS11 (t(4;14)+) (Horizon Discovery Ltd.).
# Cells were treated with tested compounds at the desired concentration for 48 hours. […] Histone extract was incubated with Eu labeled anti-H3K36me2 antibody (abcam #ab ab9049) and d2 labeled anti-H3 antibody (abcam #ab1791) for 1 hour at room temperature. A Eu labeled anti-H3 antibody (CISBIO #64CUS000) was used for loading control. The abundancy of H3K36me2 or total H3 was measured by fluorescence signal on Perkin Elmer Envison machine.
# [2] = tested on: cellular H3K36me2 level in multiple myeloma cell line KMS11 (t(4;14)+); experiment: H3K36me2 cellular ELISA assay in KMS11-Par line; assay type: cell-based; conditions: Homo sapiens, KMS-11; KMS11-Par line (t(4;14)+), 72 hours treatment, ELISA; read-out: H3K36me2 ELISA in KMS11-Par
# In short: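 After 72 h compound exposure, HCl-extracted histones from KMS11 (t(4;14)+) cells were probed by ELISA for H3K36me2 against total H3 with a chemiluminescence read-out. Cells were plated at 1,250/well in Opti-MEM plus B-27 and N2 the day before. A parallel CellTiter-Glo plate tracked viability.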
# [3] = NSD2 biochemical activity, class symbols
# [4] = Homo sapiens, KMS-11, KMS11-Par line, cellular H3K36me2 level
# [5] = Homo sapiens, KMS-11, KMS11-Par line
# NSD2 [1-1365], sequence (O96028 whole entry): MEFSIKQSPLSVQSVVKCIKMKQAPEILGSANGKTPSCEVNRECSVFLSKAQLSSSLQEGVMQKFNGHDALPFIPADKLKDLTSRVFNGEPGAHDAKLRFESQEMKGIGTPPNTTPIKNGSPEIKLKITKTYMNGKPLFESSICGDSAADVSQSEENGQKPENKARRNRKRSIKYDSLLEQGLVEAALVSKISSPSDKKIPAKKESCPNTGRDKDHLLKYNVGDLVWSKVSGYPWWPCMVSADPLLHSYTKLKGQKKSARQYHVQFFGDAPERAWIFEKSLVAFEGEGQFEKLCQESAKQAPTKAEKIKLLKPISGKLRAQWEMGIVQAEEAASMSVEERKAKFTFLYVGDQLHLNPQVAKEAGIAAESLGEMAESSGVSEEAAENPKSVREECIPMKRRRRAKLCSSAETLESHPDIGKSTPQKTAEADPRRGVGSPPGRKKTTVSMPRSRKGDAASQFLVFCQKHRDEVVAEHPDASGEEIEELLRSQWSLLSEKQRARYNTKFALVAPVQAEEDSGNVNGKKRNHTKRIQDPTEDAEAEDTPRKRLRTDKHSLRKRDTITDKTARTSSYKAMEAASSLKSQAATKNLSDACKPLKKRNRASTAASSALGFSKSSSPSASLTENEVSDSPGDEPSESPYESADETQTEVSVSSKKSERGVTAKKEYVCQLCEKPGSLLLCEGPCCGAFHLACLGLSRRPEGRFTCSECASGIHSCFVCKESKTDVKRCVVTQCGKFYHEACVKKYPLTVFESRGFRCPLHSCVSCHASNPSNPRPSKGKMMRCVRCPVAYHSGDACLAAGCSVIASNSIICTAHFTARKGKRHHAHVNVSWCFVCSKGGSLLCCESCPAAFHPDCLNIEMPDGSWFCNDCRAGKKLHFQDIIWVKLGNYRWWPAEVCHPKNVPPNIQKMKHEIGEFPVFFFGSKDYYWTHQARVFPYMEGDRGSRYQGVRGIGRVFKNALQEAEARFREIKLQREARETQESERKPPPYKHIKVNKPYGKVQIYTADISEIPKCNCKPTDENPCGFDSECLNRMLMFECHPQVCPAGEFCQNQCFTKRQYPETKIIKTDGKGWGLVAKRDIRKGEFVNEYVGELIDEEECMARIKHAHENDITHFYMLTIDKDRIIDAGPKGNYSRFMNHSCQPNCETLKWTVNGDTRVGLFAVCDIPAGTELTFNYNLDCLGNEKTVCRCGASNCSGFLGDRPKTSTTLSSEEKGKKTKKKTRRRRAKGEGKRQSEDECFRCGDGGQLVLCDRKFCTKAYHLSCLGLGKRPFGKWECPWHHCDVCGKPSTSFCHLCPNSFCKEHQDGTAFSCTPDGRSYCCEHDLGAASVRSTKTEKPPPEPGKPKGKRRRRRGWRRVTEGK
IC50 (NSD2 [1-1365]; [3]) [µM],"IC50 [1, 4] [µM]",SMILES,further results
0.01 to 1,0.614,"CC(C)OC[C@@]1(N)CCCN(c2cnc(-c3ccc(F)cc3)cc2Cn2cnc3c(N)ncnc32)C1 [Example 37, (R)-9-((5-(3-amino-3-(isopropoxymethyl)piperidin-1-yl)-2-(4-fluorophenyl)pyridin-4-yl)methyl)-9H-purin-6-amine]",IC50 [2]: 1.4 µM
0.001 to 0.01,0.248,"COC[C@@]1(N)CCCN(c2cnc(-c3cc(Cl)ccc3F)cc2Cn2cnc3c(N)ncnc32)C1 [Example 26, (R)-9-((5-(3-amino-3-(methoxymethyl)piperidin-1-yl)-2-(5-chloro-2-fluorophenyl)pyridin-4-yl)methyl)-9H-purin-6-amine]",IC50 [2]: 0.375 µM
0.001 to 0.01,–,COC[C@@]1(N)CCCN(c2cnc(-c3ccc(OC)c(F)c3)cc2Cn2cnc3c(N)ncnc32)C1 [Example 46],"IC50 ([1]; KMS11-Par line, cellular H3K36me2 level): 0.315 µM"
0.01 to 1,0.956,"COc1ccc(-c2cc(Cn3cnc4c(N)ncnc43)c(N3CCC[C@](N)(C(=O)OC(C)(C)C)C3)cn2)cc1F [Example 83, tert-butyl (R)-3-amino-1-(4-((6-amino-9H-purin-9-yl)methyl)-6-(3-fluoro-4-methoxyphenyl)pyridin-3-yl)piperidine-3-carboxylate]",–
0.01 to 1,0.849,"Nc1ncnc2c1ncn2Cc1cc(-c2ccc(F)cc2)ncc1N1CCC[C@](N)(CC(F)F)C1 [Example 71, (S)-9-((5-(3-amino-3-(2,2-difluoroethyl)piperidin-1-yl)-2-(4-fluorophenyl)pyridin-4-yl)methyl)-9H-purin-6-amine]",–
0.01 to 1,118,"CNC(=O)CC1(N)CCCN(c2cnc(-c3cccc(F)c3)cc2Cn2cnc3c(N)ncnc32)C1 (stereo not drawn) [Example 66, 2-(3-amino-1-(4-((6-amino-9H-purin-9-yl)methyl)-6-(3-fluorophenyl)pyridin-3-yl)piperidin-3-yl)-N-methylacetamide]",–
0.001 to 0.01,0.225,"COC[C@@]1(N)CCCN(c2cnc(-c3ccc(F)cc3F)cc2Cn2cnc3c(N)ncnc32)C1 [Example 29, (R)-9-((5-(3-amino-3-(methoxymethyl)piperidin-1-yl)-2-(2,4-difluorophenyl)pyridin-4-yl)methyl)-9H-purin-6-amine]",–
0.01 to 1,20.8,"COc1ccc(-c2cc(Cn3cnc4c(N)nccc43)c(N3CCC[C@@H](N)C3)cn2)cc1F [Example 21, (R)-1-((5-(3-aminopiperidin-1-yl)-2-(3-fluoro-4-methoxyphenyl)pyridin-4-yl)methyl)-1H-imidazo[4,5-c]pyridin-4-amine]",–
0.001 to 0.01,0.16,"COC[C@@]1(N)CCCN(c2cnc(-c3ccc(F)c(F)c3)cc2Cn2cnc3c(N)ncnc32)C1 [Example 23, (R)-9-((5-(3-amino-3-(methoxymethyl)piperidin-1-yl)-2-(3,4-difluorophenyl)pyridin-4-yl)methyl)-9H-purin-6-amine]",–
0.01 to 1,9.44,"CN(C)C(=O)C[C@@]1(N)CCCN(c2cnc(-c3cccc(F)c3)cc2Cn2cnc3c(N)ncnc32)C1 [Example 70, (S)-2-(3-amino-1-(4-((6-amino-9H-purin-9-yl)methyl)-6-(3-fluorophenyl)pyridin-3-yl)piperidin-3-yl)-N,N-dimethylacetamide]",–
0.01 to 1,2.4,"CO/N=C(\C)C1(N)CCCN(c2cnc(-c3ccc(OC)c(F)c3)cc2Cn2cnc3c(N)ncnc32)C1 (stereo not drawn) [Example 96, (E)-1-(3-amino-1-(4-((6-amino-9H-purin-9-yl)methyl)-6-(3-fluoro-4-methoxyphenyl)pyridin-3-yl)piperidin-3-yl)ethan-1-one O-methyl oxime]",–
0.001 to 0.01,1.03,"COC[C@@]1(N)CCCN(c2cnc(-c3ccc(OC)cc3F)cc2Cn2cnc3c(N)ncnc32)C1 [Example 33, (R)-9-((5-(3-amino-3-(methoxymethyl)piperidin-1-yl)-2-(2-fluoro-4-methoxyphenyl)pyridin-4-yl)methyl)-9H-purin-6-amine]",–
0.001 to 0.01,0.995,"COc1ccc(-c2cc(Cn3cnc4c(N)ncnc43)c(N3CCC[C@](N)(COC(C)C)C3)cn2)cc1F [Example 25, (R)-9-((5-(3-amino-3-(isopropoxymethyl)piperidin-1-yl)-2-(3-fluoro-4-methoxyphenyl)pyridin-4-yl)methyl)-9H-purin-6-amine]",–

# More lines, now with the values behind:
SMILES,IC50 (NSD2 [1-1365]; [3]) [µM],"IC50 [1, 4] [µM]",further results
COC[C@@H]1[C@H](N)CCCN1c1cnc(-c2ccc(C#N)c(F)c2)cc1Cn1cnc2c(N)ncnc21 [Example 9],0.01 to 1,9.9,–
"COc1ccc(-c2cc(Cn3cnc4c(N)ncnc43)c(N3CCC[C@](N)(CC(F)(F)F)C3)cn2)cc1F [Example 303, (S)-9-((5-(3-amino-3-(2,2,2-trifluoroethyl)piperidin-1-yl)-2-(3-fluoro-4-methoxyphenyl)pyridin-4-yl)methyl)-9H-purin-6-amine]",–,–,"IC50 (NSD2 [1-1365]): 0.01 to 1 µM; IC50 [1, 5]: 5.37 µM"
"COc1ccc(-c2cc(Cn3cnc4c(N)ncnc43)c(N3CCC[C@@H](N)C3)cn2)cc1 [Example 11, (R)-9-((5-(3-aminopiperidin-1-yl)-2-(4-methoxyphenyl)pyridin-4-yl)methyl)-9H-purin-6-amine]",0.01 to 1,11.2,–
"Nc1ncnc2c1ncn2Cc1cc(-c2cccc(F)c2)ncc1N1CCC[C@](N)(COC2CCC2)C1 [Example 35, (R)-9-((5-(3-amino-3-(cyclobutoxymethyl)piperidin-1-yl)-2-(3-fluorophenyl)pyridin-4-yl)methyl)-9H-purin-6-amine]",0.001 to 0.01,0.61,–
"COc1ccc(-c2cc(Cn3cnc4c(N)ncnc43)c(N3CCC(OC)C(N)C3)cn2)cc1F (stereo not drawn) [Example 15, 9-((5-(3-amino-4-methoxypiperidin-1-yl)-2-(3-fluoro-4-methoxyphenyl)pyridin-4-yl)methyl)-9H-purin-6-amine]",0.01 to 1,18.7,–
"Nc1ncnc2c1ncn2Cc1cc(-c2cccc(F)c2)ncc1N1CC[C@@H](F)[C@@H](N)C1 [Example 8, 9-((5-((3S,4R)-3-amino-4-fluoropiperidin-1-yl)-2-(3-fluorophenyl)pyridin-4-yl)methyl)-9H-purin-6-amine]",0.01 to 1,5.26,–
"COc1ccc(-c2cc(Cn3cnc4c(N)ncnc43)c(N3CCC[C@@](C)(N)C3)cn2)cc1F [Example 20, (R)-9-((5-(3-amino-3-methylpiperidin-1-yl)-2-(3-fluoro-4-methoxyphenyl)pyridin-4-yl)methyl)-9H-purin-6-amine]",0.01 to 1,2.95,–
"COc1ccc(-c2cc(Cn3cnc4c(N)ncnc43)c(N3CCC[C@@H](N)C3)cn2)c(F)c1 [Example 6, (R)-9-((5-(3-aminopiperidin-1-yl)-2-(2-fluoro-4-methoxyphenyl)pyridin-4-yl)methyl)-9H-purin-6-amine]",0.01 to 1,10,–
"Nc1ncnc2c1ncn2Cc1cc(-c2ccccc2F)ncc1N1CC[C@@H](F)[C@@H](N)C1 [Example 2, 9-((5-((3S,4R)-3-amino-4-fluoropiperidin-1-yl)-2-(2-fluorophenyl)pyridin-4-yl)methyl)-9H-purin-6-amine]",0.01 to 1,11.1,–
"Nc1ncnc2c1ncn2Cc1cc(-c2cccc(F)c2)ncc1N1CCC[C@@H](N)C1 [Example 4, (R)-9-((5-(3-aminopiperidin-1-yl)-2-(3-fluorophenyl)pyridin-4-yl)methyl)-9H-purin-6-amine]",0.01 to 1,4.12,–
"CSCC1(N)CCCN(c2cnc(-c3ccc(F)c(F)c3)cc2Cn2cnc3c(N)ncnc32)C1 (stereo not drawn) [Example 297, 9-((5-(3-amino-3-((methylthio)methyl)piperidin-1-yl)-2-(3,4-difluorophenyl)pyridin-4-yl)methyl)-9H-purin-6-amine]",–,–,"IC50 (NSD2 [1-1365]): 0.01 to 1 µM; IC50 [1, 5]: 2.35 µM"
"N#Cc1ccc(-c2cc(Cn3cnc4c(N)ncnc43)c(N3CC[C@@H](F)[C@@H](N)C3)cn2)cc1F [Example 13, 4-(5-((3S,4R)-3-amino-4-fluoropiperidin-1-yl)-4-((6-amino-9H-purin-9-yl)methyl)pyridin-2-yl)-2-fluorobenzonitrile]",0.01 to 1,20.7,–
"Nc1ncnc2c1ncn2Cc1cc(-c2cccc(Cl)c2)ncc1N1CC[C@@H](F)[C@@H](N)C1 [Example 12, 9-((5-((3S,4R)-3-amino-4-fluoropiperidin-1-yl)-2-(3-chlorophenyl)pyridin-4-yl)methyl)-9H-purin-6-amine]",0.01 to 1,12.2,–
